Our source for the EC (150% of control) values is patent US9657014B2, “Substituted 1,6-naphthyridines” (Hoffmann-La Roche Inc., priority 2012, dated 2017).

For the assay, the system named is human embryonic stem cell derived neural stem cells (NSCs). The assay can be described thus: Neural stem cell proliferation assay (neurogenesis assay). The class given is cell-based. Particulars: Homo sapiens, Neural stem cell, 96 h, concentration at which 150% activity of control (100%) is reached, ATP levels (CellTiterGlo) after 4 days incubation. In a few lines: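 NSCs derived from human ES cells by dual SMAD inhibition, seeded on polyornithin/laminin, dosed 4 h later (11 points, 8 μM to 8 nM). After 4 days at 37° C, ATP luminescence read; response = compound/medium control ×100, EC150 = concentration giving 150% of control.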
A general note: Cellular ATP, detected with luciferase, serves as a proxy for viable cell number.

For `CC(NC(=O)c1ccc2cncc(-c3ccc(F)c(F)c3)c2n1)c1ccc(S(C)(=O)=O)cc1` (centres unmarked) [Example 111, 8-(3,4-Difluorophenyl)-N-(1-(4-(methylsulfonyl)phenyl)ethyl)-1,6-naphthyridine-2-carboxamide], the EC (150% of control) (Table 1, novel compounds) was determined as 0.3 µM.

The compound `NC(=O)c1ccc2cncc(-c3ccc(OC(F)(F)F)cc3)c2n1` [Example 95, 8-(4-(Trifluoromethoxy)phenyl)-1,6-naphthyridine-2-carboxamide] came in with an EC (150% of control) (Table 1, novel compounds) of 0.05 µM. Under “Table 1, novel compounds”, `Cc1cnc(CNC(=O)c2ccc3cncc(-c4ccc(Cl)cc4)c3n2)cn1` [Example 48, 8-(4-Chlorophenyl)-N-((5-methylpyrazin-2-yl)methyl)-1,6-naphthyridine-2-carboxamide] showed an EC (150% of control) of 0.88 µM. Under “Table 2, known compounds”, `COCCNC(=O)c1ccc2cncc(-c3ccccc3)c2n1` [Example 204, 8-Phenyl-[1,6]naphthyridine-2-carboxylic acid (2-methoxy-ethyl)-amide] gave an EC (150% of control) of 0.2 µM.

`CC(C)(C)CNC(=O)c1ccc2cncc(-c3ccc(F)cc3)c2n1` [Example 117, 8-(4-Fluorophenyl)-N-neopentyl-1,6-naphthyridine-2-carboxamide] had an EC (150% of control) (Table 1, novel compounds) of 0.07 µM. In turn, `CS(=O)(=O)c1ccc(CNC(=O)c2ccc3cncc(-c4cc(F)ccc4F)c3n2)cc1` [Example 116, 8-(2,5-Difluorophenyl)-N-(4-(methylsulfonyl)benzyl)-1,6-naphthyridine-2-carboxamide] came in with an EC (150% of control) (Table 1, novel compounds) of 1.65 µM. On the same count and under the same terms, the value for `Cc1ccccc1-c1cncc2ccc(C(=O)NC(C)C(C)(C)O)nc12` (centres unmarked) [Example 176, N-(3-Hydroxy-3-methylbutan-2-yl)-8-o-tolyl-1,6-naphthyridine-2-carboxamide] was 0.28 µM. The same measure, in the same setting: the value for `O=C(NCc1ccncc1)c1ccc2cncc(-c3cccc(Cl)c3)c2n1` [Example 29, 8-(3-Chlorophenyl)-N-(pyridin-4-ylmethyl)-1,6-naphthyridine-2-carboxamide] was 0.51 µM.

As to `CS(=O)(=O)c1ccccc1CNC(=O)c1ccc2cncc(-c3ccc(Cl)cc3)c2n1` [Example 132, 8-(4-Chlorophenyl)-N-(2-(methylsulfonyl)benzyl)-1,6-naphthyridine-2-carboxamide], the EC (150% of control) (Table 1, novel compounds) was 0.03 µM. Regarding `CC(C)(C)CNC(=O)c1ccc2cncc(-c3cc(F)ccc3F)c2n1` [Example 122, 8-(2,5-Difluorophenyl)-N-neopentyl-1,6-naphthyridine-2-carboxamide], the EC (150% of control) (Table 1, novel compounds) is 0.12 µM. On the same count and under the same terms, the value for `Cn1cc(-c2cncc3ccc(C(N)=O)nc23)cn1` [Example 98, 8-(1-Methyl-1H-pyrazol-4-yl)-1,6-naphthyridine-2-carboxamide] was 0.14 µM; that for `NC(=O)c1ccc2cncc(-c3ccc(OCC(F)(F)F)cc3)c2n1` [Example 165, 8-(4-(2,2,2-Trifluoroethoxyl)phenyl)-1,6-naphthyridine-2-carboxamide] was 0.01 µM. As to `O=C(NCC(F)(F)F)c1ccc2cncc(-c3ccc(F)cc3F)c2n1` [Example 126, 8-(2,4-Difluorophenyl)-N-(2,2,2-trifluoroethyl)-1,6-naphthyridine-2-carboxamide], the EC (150% of control) (Table 1, novel compounds) was 0.06 µM.

For the setting “Table 1, novel compounds”, `O=C(NCCCn1ccnc1)c1ccc2cncc(C3=CCOCC3)c2n1` [Example 43, N-(3-(1H-Imidazol-1-yl)propyl)-8-(3,6-dihydro-2H-pyran-4-yl)-1,6-naphthyridine-2-carboxamide] showed an EC (150% of control) of 2.68 µM. In the case of `NC(=O)c1ccc2cncc(-c3cccc(F)c3)c2n1` [Example 78, 8-(3-Fluorophenyl)-1,6-naphthyridine-2-carboxamide], the EC (150% of control) (Table 1, novel compounds) is 0.05 µM. On the same count and under the same terms, the value for `O=C(NCCO)c1ccc2cncc(-c3cccc(O)c3)c2n1` [Example 144, N-(2-Hydroxyethyl)-8-(3-hydroxyphenyl)-1,6-naphthyridine-2-carboxamide] was 0.16 µM; that for `CCCCCCNC(=O)c1ccc2cncc(-c3ccc(Cl)cc3)c2n1` [Example 145, 8-(4-Chlorophenyl)-N-hexyl-1,6-naphthyridine-2-carboxamide] was 0.21 µM. For `COc1ccc(-c2cncc3ccc(C(=O)N4CCCCC4)nc23)cc1` [Example 183, [8-(4-Methoxy-phenyl)-[1,6]naphthyridin-2-yl]-piperidin-1-yl-methanone], the EC (150% of control) (Table 2, known compounds) was 1.25 µM. For the compound `NC(=O)c1ccc2cncc(-c3ccc(C(F)(F)F)cc3)c2n1` [Example 101, 8-(4-(Trifluoromethyl)phenyl)-1,6-naphthyridine-2-carboxamide], the EC (150% of control) (Table 1, novel compounds) is 0.02 µM.

Consider `O=C(c1ccc2cncc(-c3ccccc3)c2n1)N1CCN(c2ccccn2)CC1` [Example 192, (8-Phenyl-[1,6]naphthyridin-2-yl)-(4-pyridin-2-yl-piperazin-1-yl)-methanone], for which the EC (150% of control) (Table 2, known compounds) came out at 1.4 µM. Where the note is “Table 1, novel compounds”, `COc1ccc(-c2cncc3ccc(C(=O)NCCCc4ccccc4)nc23)cc1` [Example 25, 8-(4-Methoxyphenyl)-N-(3-phenylpropyl)-1,6-naphthyridine-2-carboxamide] had an EC (150% of control) of 0.67 µM. Where the note is “Table 2, known compounds”, `COc1ccccc1CNC(=O)c1ccc2cncc(-c3ccccc3)c2n1` [Example 194, 8-Phenyl-[1,6]naphthyridine-2-carboxylic acid 2-methoxy-benzylamide] registered an EC (150% of control) of 0.73 µM. In the case of `O=C(NCc1ccncc1)c1ccc2cncc(-c3cccnc3)c2n1` [Example 31, 8-(Pyridin-3-yl)-N-(pyridin-4-ylmethyl)-1,6-naphthyridine-2-carboxamide], the EC (150% of control) (Table 1, novel compounds) amounted to 0.54 µM.
